# Reference: ChEMBL document CHEMBL1201862, “PubChem BioAssay data set” (2004)
# The source made the active and inactive calls.
# Columns and labels:
# [1] = biological target: Beta-galactosidase (Escherichia coli, UniProt Q8VNN2); assay: PubChem AID 485352; assay type: functional
# [2] = biological target: T1, Type-1 angiotensin II receptor (Homo sapiens, UniProt P30556); assay: antagonism of angiotensin II type 1 receptor – cell-based, uHTS hits, selectivity assay for APJ receptor antagonist project, dose response (AID 463214); assay type: functional;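 also: antagonist potency against angiotensin II stimulated AT1 response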
# T1 sequence (P30556 whole entry): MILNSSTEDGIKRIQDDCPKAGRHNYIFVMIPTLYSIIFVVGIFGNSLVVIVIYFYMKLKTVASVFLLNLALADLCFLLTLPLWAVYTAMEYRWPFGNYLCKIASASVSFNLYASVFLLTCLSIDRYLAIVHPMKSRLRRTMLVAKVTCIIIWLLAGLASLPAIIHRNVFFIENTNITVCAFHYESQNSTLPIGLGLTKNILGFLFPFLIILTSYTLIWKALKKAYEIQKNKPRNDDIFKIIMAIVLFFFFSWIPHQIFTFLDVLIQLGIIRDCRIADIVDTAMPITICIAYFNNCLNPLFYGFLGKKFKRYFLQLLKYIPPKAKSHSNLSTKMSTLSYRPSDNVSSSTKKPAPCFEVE
# [3] = biological target: T2, Coagulation factor XII (Homo sapiens, UniProt P00748); assay type: functional;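 also: activated factor XIIa alpha cleaving a fluorogenic AMC peptide substrate; inhibitor potency from loss of enzyme activity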
# T2 sequence (P00748 whole entry): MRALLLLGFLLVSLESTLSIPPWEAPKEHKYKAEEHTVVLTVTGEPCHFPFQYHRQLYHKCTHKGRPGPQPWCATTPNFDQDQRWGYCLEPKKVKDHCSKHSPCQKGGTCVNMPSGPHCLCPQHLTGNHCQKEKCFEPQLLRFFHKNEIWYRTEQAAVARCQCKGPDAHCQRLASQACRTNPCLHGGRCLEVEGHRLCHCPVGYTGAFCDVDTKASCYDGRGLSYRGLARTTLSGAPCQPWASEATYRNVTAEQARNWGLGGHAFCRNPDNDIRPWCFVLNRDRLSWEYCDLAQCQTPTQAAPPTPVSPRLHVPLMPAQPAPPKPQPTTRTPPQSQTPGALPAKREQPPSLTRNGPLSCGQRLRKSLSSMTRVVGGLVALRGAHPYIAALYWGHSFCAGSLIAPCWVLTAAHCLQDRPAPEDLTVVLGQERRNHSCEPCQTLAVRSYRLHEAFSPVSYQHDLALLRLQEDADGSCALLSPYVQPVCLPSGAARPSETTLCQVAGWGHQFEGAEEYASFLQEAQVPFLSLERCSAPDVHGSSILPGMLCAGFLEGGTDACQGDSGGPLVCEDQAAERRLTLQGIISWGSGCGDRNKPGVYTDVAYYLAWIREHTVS
# [4] = tested on: Vero; assay: cells; assay type: functional; details: Chlorocebus sabaeus
# [5] = biological target: T3, Aminopeptidase N (Plasmodium falciparum FcB1/Columbia, UniProt O96935); assay: malaria alanyl aminopeptidase activity blockers – biochemical, fluorogenic H-Leu-NHMec substrate, 1536-well (AID 1445); parameters: species or system Plasmodium falciparum 3D7, 3D7
# T3 sequence (O96935 whole entry): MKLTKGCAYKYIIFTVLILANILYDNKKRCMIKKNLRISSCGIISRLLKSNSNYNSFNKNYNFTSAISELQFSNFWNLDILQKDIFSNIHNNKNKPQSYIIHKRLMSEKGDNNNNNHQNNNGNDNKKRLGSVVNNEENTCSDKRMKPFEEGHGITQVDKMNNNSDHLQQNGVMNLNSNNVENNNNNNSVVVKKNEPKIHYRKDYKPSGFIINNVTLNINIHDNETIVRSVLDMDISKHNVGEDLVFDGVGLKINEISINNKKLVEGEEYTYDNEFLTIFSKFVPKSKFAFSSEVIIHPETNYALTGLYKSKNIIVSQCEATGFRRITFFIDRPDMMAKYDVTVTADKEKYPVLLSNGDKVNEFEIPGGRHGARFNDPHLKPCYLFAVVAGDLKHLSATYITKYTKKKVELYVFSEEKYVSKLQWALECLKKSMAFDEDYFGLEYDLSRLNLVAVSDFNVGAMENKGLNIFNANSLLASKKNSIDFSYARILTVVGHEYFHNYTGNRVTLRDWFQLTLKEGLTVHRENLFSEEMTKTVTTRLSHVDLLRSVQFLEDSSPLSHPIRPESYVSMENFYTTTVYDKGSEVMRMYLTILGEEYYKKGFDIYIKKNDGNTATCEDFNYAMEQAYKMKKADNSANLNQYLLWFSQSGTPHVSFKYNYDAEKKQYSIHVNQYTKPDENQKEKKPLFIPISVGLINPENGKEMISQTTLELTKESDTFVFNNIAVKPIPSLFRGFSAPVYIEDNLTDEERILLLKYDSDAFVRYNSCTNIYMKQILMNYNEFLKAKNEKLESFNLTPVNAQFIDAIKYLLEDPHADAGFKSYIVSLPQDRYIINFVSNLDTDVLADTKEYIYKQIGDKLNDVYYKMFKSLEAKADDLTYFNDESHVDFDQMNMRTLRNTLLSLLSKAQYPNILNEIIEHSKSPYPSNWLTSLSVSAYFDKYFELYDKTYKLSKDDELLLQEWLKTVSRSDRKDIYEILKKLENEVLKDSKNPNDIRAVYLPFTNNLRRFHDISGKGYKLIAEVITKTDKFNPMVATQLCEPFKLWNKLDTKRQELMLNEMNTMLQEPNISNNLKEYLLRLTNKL
# [6] = biological target: Genome polyprotein (dengue virus type 2, UniProt P29990); assay: flavivirus cap methylation enzyme inhibition – biochemical, confirmation dose response, primary screen (AID 588689); assay type: functional
# [7] = biological target: T4, Calpain-2 catalytic subunit (Sus scrofa, UniProt P43367); assay: m-calpain protease blockers, concentration series – biochemical, fluorogenic peptide substrate, dose response (AID 1420); assay type: functional
# T4 sequence (P43367 whole entry): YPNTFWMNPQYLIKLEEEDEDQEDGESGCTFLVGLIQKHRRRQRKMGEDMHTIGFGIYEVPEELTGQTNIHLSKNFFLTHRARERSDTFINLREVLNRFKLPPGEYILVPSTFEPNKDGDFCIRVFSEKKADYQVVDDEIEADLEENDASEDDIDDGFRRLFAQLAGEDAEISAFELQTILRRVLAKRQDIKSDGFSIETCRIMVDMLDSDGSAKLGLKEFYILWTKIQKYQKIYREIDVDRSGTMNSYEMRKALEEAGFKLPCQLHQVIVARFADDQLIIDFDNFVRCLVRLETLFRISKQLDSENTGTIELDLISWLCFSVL
# [8] = biological target: T5, Microphthalmia-associated transcription factor (Homo sapiens, UniProt O75030); assay: reducers of TRPM1 reporter luminescence, concentration series – cell-based, SK-MEL-5, cherry-picked, set 3, MITF inhibitor project, dose response (AID 493073); assay type: functional;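 also: SK-MEL-5 melanoma cells with luciferase driven by the MITF target TRPM1 promoter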
# T5 sequence (O75030 whole entry): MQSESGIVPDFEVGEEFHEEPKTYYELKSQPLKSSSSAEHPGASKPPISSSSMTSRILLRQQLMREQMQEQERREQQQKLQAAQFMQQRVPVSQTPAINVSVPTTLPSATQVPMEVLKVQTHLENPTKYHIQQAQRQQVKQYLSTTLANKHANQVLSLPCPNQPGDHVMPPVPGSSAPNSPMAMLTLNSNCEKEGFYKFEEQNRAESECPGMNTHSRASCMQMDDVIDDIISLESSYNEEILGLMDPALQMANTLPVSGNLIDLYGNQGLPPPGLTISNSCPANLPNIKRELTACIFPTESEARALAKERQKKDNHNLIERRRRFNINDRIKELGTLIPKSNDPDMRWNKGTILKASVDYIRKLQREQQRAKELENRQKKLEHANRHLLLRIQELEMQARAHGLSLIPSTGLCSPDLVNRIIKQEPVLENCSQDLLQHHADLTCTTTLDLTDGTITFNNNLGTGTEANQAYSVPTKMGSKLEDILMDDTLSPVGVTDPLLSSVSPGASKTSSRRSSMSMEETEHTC
# [9] = biological target: T6, Fatty acid synthase (Homo sapiens, UniProt P49327); assay: inhibition of human FAS-TE enzyme activity – biochemical, endpoint fluorescence intensity, uHTS hits, dose response (AID 624327); assay type: functional;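 also: fluorescence from hydrolysis of an O-methyl fluorescein acyl ester substrate by the enzyme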
# [10] = biological target: T6, Fatty acid synthase; assay: inhibition of human FAS-TE enzyme activity – biochemical, kinetic fluorescence intensity, dose response (AID 624326); assay type: functional;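 also: rate of fluorescence rise from hydrolysis of a fluorogenic O-methyl fluorescein ester substrate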
# [11] = luciferase reporter signal suppression in cells – H4 neuroglioma cells, luminescence, dose response (AID 1990); assay type: functional, cell-based
# [12] = tested on: Streptococcus sp. 'group A'; assay: Streptococcus pyogenes SK(-)GAS viability under kanamycin – luminescence, BacTiterGlo, confirmation, counter-screen for streptokinase expression inhibitor project, dose response (AID 1900); assay type: functional, organism-based
# [13] = Luminescence Cell-Based Dose Response HTS to Identify Inhibitors of 5'UTR Stem-Loop Driven Prion Protein mRNA Translation in H4 Neuroglioblastoma Cells. [Related pubchem assays: 1827 (Project Summary), 1813 (Primary HTS)]; assay type: functional
# [14] = alpha-synuclein stem-loop luciferase translation blockers – H4 neuroglioma cells, luminescence, confirmation (AID 1988); assay type: functional, cell-based
# [15] = Trypanosoma cruzi growth suppression in host cells – NIH3T3 host cells, beta-gal luminescence, confirmation (AID 2044); assay type: functional, cell-based;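 also: intracellular parasites grown in NIH/3T3 mouse fibroblasts as host cells; luminescent beta-galactosidase reporter signal from transgenic T. cruzi replicating inside host cells; inhibitors lower the luminescence signal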
# [16] = NIH3T3 cell viability loss – ATP luminescence, mouse fibroblasts, counter-screen, dose response (AID 2010); assay type: functional, cell-based;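 also: cells exposed to compound for about 90 hours before reading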
# [17] = tested on: Streptococcus; assay: GAS UMAA2166 growth inhibition – luminescence, BacTiterGlo, counter-screen for streptokinase expression inhibitor project, dose response (AID 1915); assay type: functional, organism-based;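 also: potency for reduction of bacterial viability or growth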
# Chain of Beta-galactosidase (Q8VNN2 whole entry): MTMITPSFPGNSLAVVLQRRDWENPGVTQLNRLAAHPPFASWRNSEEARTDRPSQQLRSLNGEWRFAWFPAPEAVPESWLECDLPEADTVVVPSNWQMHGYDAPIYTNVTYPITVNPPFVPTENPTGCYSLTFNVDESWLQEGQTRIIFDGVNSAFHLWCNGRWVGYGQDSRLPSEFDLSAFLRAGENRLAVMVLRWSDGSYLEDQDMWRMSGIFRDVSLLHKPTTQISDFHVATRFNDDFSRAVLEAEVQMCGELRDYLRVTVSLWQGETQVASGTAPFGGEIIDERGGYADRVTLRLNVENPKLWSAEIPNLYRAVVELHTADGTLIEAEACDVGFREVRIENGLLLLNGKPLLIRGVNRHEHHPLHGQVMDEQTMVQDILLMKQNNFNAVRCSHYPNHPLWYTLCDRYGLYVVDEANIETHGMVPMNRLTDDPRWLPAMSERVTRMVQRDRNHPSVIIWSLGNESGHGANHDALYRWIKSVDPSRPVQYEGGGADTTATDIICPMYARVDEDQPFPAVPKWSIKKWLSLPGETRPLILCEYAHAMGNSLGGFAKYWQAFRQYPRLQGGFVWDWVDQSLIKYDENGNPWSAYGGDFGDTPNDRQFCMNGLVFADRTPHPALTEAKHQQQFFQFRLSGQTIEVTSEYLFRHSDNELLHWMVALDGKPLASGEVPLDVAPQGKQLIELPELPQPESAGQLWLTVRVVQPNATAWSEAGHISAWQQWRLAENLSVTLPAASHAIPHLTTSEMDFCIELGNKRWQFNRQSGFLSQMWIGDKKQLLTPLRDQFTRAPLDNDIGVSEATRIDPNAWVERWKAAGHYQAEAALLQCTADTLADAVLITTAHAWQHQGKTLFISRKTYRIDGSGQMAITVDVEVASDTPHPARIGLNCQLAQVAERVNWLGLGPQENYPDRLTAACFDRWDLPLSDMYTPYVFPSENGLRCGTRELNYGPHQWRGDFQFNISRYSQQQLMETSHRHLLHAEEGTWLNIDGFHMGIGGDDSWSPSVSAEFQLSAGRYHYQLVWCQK
# Chain of Genome polyprotein (P29990 2492-3391 limits assumed): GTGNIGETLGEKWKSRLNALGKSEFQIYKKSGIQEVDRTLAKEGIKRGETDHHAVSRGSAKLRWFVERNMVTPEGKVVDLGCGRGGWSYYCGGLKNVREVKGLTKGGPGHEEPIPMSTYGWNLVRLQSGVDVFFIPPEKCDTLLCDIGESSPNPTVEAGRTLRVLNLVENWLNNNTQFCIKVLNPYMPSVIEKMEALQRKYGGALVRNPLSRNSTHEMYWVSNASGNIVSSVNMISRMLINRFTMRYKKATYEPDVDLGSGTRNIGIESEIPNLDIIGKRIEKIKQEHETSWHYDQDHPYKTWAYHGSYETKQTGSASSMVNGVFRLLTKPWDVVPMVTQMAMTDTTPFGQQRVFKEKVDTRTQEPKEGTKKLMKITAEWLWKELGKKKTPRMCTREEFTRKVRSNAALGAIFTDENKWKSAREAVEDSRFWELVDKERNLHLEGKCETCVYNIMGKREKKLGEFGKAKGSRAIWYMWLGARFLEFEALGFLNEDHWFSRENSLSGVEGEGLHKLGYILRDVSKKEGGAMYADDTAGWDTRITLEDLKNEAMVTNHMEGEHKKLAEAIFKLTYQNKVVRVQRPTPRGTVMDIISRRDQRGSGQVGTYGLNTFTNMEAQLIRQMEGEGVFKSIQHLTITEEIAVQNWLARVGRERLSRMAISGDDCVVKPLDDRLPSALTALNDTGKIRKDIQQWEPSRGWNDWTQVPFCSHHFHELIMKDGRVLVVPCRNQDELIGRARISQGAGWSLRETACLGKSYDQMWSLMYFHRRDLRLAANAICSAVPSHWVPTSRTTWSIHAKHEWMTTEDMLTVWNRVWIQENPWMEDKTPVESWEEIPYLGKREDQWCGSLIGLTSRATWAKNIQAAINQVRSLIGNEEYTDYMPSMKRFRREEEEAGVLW
# T6 sequence (P49327 whole entry): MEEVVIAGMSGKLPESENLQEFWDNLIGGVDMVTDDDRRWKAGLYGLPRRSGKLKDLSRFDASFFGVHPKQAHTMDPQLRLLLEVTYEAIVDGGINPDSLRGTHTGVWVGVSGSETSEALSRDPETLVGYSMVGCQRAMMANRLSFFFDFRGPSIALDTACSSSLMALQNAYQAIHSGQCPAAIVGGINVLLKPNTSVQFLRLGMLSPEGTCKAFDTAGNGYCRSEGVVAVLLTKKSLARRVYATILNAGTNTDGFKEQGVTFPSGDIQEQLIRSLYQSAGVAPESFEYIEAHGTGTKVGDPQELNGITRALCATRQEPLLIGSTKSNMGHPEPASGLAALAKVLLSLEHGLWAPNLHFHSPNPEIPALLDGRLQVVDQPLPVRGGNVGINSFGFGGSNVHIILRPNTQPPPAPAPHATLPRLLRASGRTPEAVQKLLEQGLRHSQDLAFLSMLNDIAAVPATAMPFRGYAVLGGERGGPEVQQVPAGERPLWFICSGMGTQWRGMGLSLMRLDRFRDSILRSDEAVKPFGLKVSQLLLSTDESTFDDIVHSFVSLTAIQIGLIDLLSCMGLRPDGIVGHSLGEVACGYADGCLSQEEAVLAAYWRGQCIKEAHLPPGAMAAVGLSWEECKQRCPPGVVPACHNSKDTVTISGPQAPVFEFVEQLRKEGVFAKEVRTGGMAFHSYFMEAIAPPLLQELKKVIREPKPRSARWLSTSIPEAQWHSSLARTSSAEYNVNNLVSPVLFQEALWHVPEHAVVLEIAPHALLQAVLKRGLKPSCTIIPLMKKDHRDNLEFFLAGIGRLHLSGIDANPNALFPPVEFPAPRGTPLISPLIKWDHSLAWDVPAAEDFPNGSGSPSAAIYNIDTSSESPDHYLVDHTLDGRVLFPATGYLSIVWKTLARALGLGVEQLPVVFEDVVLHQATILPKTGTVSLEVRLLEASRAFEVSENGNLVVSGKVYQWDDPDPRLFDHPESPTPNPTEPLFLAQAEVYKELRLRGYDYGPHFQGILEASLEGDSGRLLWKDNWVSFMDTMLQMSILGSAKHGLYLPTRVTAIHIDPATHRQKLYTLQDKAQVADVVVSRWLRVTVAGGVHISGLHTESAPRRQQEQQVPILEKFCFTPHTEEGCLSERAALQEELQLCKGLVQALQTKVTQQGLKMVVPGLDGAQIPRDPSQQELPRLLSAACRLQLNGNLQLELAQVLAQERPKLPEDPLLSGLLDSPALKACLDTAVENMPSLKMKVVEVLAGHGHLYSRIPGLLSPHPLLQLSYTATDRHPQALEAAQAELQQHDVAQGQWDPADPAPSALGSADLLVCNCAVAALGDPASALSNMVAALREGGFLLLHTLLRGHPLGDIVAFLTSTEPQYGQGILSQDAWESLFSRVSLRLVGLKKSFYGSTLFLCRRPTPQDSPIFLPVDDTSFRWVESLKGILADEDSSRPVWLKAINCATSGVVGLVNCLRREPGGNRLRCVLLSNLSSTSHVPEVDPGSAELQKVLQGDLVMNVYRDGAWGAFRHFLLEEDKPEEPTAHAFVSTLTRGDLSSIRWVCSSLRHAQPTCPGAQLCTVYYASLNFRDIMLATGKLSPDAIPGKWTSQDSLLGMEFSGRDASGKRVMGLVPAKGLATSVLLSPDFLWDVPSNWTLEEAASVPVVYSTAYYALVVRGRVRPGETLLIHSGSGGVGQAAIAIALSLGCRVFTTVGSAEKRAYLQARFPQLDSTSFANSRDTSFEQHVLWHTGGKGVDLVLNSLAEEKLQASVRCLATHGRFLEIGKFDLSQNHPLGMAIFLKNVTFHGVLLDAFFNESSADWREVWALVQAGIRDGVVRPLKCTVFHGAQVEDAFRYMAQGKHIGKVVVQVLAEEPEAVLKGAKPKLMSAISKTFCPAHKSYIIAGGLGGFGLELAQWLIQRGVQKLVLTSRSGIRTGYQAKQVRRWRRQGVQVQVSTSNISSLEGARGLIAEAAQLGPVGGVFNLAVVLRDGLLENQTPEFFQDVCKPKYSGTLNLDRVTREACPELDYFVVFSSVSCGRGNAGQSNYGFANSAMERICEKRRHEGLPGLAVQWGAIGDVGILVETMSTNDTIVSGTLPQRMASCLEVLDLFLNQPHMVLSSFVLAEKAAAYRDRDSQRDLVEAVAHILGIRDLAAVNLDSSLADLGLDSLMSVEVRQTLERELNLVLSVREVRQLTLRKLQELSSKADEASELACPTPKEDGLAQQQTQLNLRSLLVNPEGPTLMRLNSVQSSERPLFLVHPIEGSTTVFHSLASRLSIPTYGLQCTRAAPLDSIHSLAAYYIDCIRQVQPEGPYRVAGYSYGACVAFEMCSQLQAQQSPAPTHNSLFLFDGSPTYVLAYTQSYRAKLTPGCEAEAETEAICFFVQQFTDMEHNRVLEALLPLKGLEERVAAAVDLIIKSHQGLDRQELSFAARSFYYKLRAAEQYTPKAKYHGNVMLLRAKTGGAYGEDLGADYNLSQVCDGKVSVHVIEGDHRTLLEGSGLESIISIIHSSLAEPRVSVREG
smiles,measurement,setting,value
CC(C)c1ccc(O)c(NC(=S)NC(=O)c2cccnc2)c1,EC50,[1],> 40 µM (inactive)
same,IC50,[2],23.2 µM (not active)
same,IC50,[3],> 50 µM (inactive)
OCCN1C[C@H](O)[C@@H](O)[C@H](O)[C@H]1CO [MIGLITOL],EC50,[1],> 40 µM (inactive)
same,IC50,[2],> 40 µM (not active)
CN(C)CC1CCC/C(=C\c2ccc(OC(=O)/C=C/c3ccccc3)cc2)C1=O (stereo not given),CC50,[4],> 25 µM (active)
COc1ccccc1/C=C1\SC(=S)N(C(C(=O)O)c2ccccc2)C1=O (stereo not given),IC50,[5],26 µM (active)
same,IC50,[6],39.1 µM (active)
COc1ccc(C(=O)NC(=S)Nc2nnn(C)n2)cc1,EC50,[1],> 40 µM (inactive)
same,IC50,[2],> 40 µM (not active)
CCOc1cc(/C=C(/C#N)c2ccc(Cl)cc2)cc(Cl)c1OCC(=O)O,IC50,[7],3.06 µM (not active)
same,AC50,[8],5.61 µM (active)
same,IC50,[6],34.5 µM (active)
same,IC50,[9],6.78 µM (active)
same,IC50,[10],10.4 µM (active)
C=C1C(=O)OC2CC3(C)OC3CCC(C)=CC(OC(C)=O)C12 (stereo not given),CC50,[4],23.8 µM (active)
CC(C)(C)c1cc(Cl)c(O)c(NC(=S)NC(=O)c2cccnc2)c1,EC50,[11],16.5 µM (active)
same,EC50,[12],0.448 µM (active)
same,EC50,[13],15 µM (active)
same,EC50,[1],> 40 µM (inactive)
same,EC50,[14],> 120 µM (not active)
same,EC50,[15],2.56 µM (active)
same,IC50,[2],22.2 µM (not active)
same,EC50,[16],6.97 µM (active)
same,EC50,[17],6.42 µM (active)
